Test results taken from US8975415B2, “Chromane compounds” (CoMentis, Inc., priority 2012, dated 2015).
Where a name gives a salt, the structure may show the parent alone.

Key:
[1] = molecular target: T1, BACE1 (Homo sapiens (Human), UniProt P56817); assay: Measurement of BACE1 inhibition by time resolved fluorescence resonance energy transfer (TR-FRET); format: biochemical; details: Eu-CEVNLDAEFK-QSY 7 substrate, read-out: Test Example 2 IC50
Target sequence in this assay (P56817 75-416): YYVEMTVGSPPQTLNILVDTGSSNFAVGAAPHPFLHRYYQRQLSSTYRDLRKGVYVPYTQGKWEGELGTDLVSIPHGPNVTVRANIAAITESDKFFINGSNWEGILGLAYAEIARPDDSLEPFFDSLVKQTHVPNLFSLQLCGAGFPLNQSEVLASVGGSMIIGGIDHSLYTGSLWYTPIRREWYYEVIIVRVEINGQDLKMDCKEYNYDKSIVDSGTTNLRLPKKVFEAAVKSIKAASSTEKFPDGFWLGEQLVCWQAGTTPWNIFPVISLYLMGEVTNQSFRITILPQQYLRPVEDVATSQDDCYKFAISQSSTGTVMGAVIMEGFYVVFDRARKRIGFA
Experimental: If the sample contains BACE1 activity, the Eu chelate and the quencher will be separated as the substrate is cleaved. The Eu-signal increases and it can be measured by time-resolved fluorometry, EnVision™, 30 minutes after the substrate (final concentration 300 nM) was added.

[2] = molecular target: hERG potassium channel (Homo sapiens (Human), UniProt Q12809); assay: hERG inhibition, automated planar patch-clamp in hERG-expressing CHO cells; details: for IC50: read-out: Test Example 5 hERG IC50, whole-cell patch clamp, room temperature
hERG potassium channel, sequence (Q12809 whole entry): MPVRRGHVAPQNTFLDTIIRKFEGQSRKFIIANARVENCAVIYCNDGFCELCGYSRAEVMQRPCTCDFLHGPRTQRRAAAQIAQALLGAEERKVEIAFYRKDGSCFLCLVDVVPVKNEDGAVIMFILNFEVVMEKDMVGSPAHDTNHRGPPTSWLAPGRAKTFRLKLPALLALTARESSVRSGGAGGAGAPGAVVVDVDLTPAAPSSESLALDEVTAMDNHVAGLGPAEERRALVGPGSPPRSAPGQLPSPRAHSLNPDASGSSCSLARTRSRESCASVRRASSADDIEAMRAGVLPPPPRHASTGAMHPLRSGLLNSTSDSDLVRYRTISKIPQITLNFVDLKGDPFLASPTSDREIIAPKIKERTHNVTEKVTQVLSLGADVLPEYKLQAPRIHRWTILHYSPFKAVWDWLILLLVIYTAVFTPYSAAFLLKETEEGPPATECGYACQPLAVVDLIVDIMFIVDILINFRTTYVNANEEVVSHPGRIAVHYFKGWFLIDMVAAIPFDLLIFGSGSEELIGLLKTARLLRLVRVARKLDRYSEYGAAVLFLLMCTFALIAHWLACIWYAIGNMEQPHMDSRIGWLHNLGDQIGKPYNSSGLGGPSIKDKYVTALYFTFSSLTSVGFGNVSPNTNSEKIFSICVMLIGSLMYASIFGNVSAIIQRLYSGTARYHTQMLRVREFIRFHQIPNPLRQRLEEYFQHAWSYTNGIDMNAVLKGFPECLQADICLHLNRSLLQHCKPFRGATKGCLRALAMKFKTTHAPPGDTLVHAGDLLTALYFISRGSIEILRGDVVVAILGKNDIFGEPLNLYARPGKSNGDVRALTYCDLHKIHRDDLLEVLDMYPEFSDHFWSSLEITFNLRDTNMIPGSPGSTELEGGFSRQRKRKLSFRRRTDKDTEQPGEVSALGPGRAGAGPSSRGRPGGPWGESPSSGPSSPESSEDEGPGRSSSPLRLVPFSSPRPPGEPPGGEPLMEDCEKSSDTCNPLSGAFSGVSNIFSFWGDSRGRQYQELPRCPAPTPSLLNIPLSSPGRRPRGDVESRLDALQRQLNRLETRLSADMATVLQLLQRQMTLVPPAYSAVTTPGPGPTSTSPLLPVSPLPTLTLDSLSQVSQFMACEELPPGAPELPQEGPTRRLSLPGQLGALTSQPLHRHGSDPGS

[3] = molecular target: T1, BACE1; assay: Measurement of Aβ production inhibition in cell (SK-N-BE(2) neuroblastoma cells, Aβ40 ELISA); details: SK-N-BE(2) cells, 6 hours
Target sequence in this assay (P56817 46-501): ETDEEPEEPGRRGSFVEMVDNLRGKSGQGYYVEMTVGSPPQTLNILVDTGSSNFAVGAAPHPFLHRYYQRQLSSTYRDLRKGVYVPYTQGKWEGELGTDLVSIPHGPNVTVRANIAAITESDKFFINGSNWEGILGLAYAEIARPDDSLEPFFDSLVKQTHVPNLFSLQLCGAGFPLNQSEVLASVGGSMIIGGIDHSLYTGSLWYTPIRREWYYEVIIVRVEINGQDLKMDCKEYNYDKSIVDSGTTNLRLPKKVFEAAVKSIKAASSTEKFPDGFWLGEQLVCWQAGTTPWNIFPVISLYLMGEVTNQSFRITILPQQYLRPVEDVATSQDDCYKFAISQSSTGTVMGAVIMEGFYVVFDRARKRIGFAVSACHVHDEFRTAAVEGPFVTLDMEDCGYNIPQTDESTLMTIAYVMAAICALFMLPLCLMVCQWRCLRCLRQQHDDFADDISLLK

[4] = molecular target: T1, BACE1; assay: Measurement of BACE1 inhibition by fluorescence resonance energy transfer (FRET), MCA substrate; details: FRET; for IC50: read-out: Test Example 1 IC50, MCA-SEVNLDAEFK(DNP)-NH2 substrate, pH 4.4; for Ki: read-out: Test Example 1 BACE1 MCA Ki, MCA substrate
Target sequence in this assay (P56817 75-416): as the sequence (P56817 75-416) above

[5] = Test Example 3 IC50, Aβ40 production

Compound	IC50 [1]	IC50 [2]	IC50 [3, 5]	IC50 [4]	IC50 ([3]; read-out: Test Example 3 IC50, Aβ40 production)	Ki [4]	selectivity ratio ([2]; human, CHO-K1 cells stably expressing hERG, pH 7.4)
COc1cc(-c2ccc3c(c2)C2(COC(N)=N2)C2(COC2)C(C)(C)O3)ccn1 (stereo not drawn) [RP 164]	2.31 µM						
NC1=NC2(CO1)c1cc(Br)ccc1OC(Cc1ccccc1)C21COC1 (single isomer, unassigned) [RP 15b]		7.93 µM	0.44 µM	1.01 µM			
NC1=NC2(CO1)c1cc(-c3cccnc3F)ccc1OC1(CCC1)C21COC1 (stereo not drawn) [RP 71]		> 10 µM	0.11 µM	1.08 µM			
CC1(C)Oc2ccc(-c3ccccc3OC(F)(F)F)cc2C2(COC(N)=N2)C12COC2 (stereo not drawn) [RP 184]	2.72 µM			2.82 µM			
NC1=NC2(CO1)c1cc(-c3cc(Cl)cnc3F)ccc1OCC21COC1 (stereo not drawn) [RP 34]		> 10 µM	0.26 µM	1.24 µM			
NC1=NC2(CO1)c1cc(Br)ccc1OC(Cc1ccccc1)C21COC1 (single isomer, unassigned) [RP 15a]		> 10 µM	1.1 µM	1.72 µM			
NC1=NC2(CO1)c1cc(-c3cncnc3)ccc1OC(Cc1ccccc1)C21COC1 (stereo not drawn) [RP 202]		7.73 µM		0.145 µM	0.026 µM	0.113 µM	
CC#Cc1cncc(-c2ccc3c(c2)C2(COC(N)=N2)C2(COC2)C(CCC)O3)c1 (stereo not drawn) [RP 92]		5.34 µM	0.037 µM	0.124 µM		0.0879 µM	
CC#Cc1cncc(-c2ccc3c(c2)C2(COC(N)=N2)C2(COC2)C(CC)O3)c1 (stereo not drawn) [RP 86]		7.94 µM	0.058 µM	0.143 µM		0.107 µM	
COCc1cnn(-c2ccc3c(c2)C2(COC(N)=N2)C2(COC2)C2(CCC2)O3)c1 (stereo not drawn) [RP 4]		> 10 µM	7.2 µM	12.6 µM			
NC1=NC2(CO1)c1cc(-c3cncc(OCC(F)F)c3)ccc1OCC21CC1 (stereo not drawn) [RP 59]		6.9 µM	0.076 µM	1.11 µM			
COc1cncc(-c2ccc3c(c2)C2(COC(N)=N2)C2(CC2)CO3)c1 (stereo not drawn) [RP 105]		7.9 µM	0.34 µM	2.94 µM			
CC#Cc1cncc(-c2ccc3c(c2)C2(COC(N)=N2)C2(CC2)CO3)c1 (stereo not drawn) [RP 111]		1.98 µM	0.14 µM	0.287 µM		0.252 µM	
NC1=NC2(CO1)c1cc(-c3cncnc3)ccc1OCC21CC1 (stereo not drawn) [RP 100]		> 10 µM	0.25 µM	2.62 µM			
NC1=NC2(CO1)c1cc(-c3cnc4ccccc4c3)ccc1OC1(CCC1)C21COC1 (stereo not drawn) [RP 211]	19.4 µM						
NC1=NC2(CO1)c1cc(Br)ccc1OC(CC1CC1)C21COC1 (single isomer, unassigned) [RP 16b]		> 10 µM	4.8 µM	4.57 µM			
CC1(C)Oc2ccc(-c3cccc4[nH]ccc34)cc2C2(COC(N)=N2)C12COC2 (stereo not drawn) [RP 186]	2.42 µM						
CC#Cc1cncc(-c2ccc3c(c2)C2(CSC(N)=N2)C2(COC2)CO3)c1 (stereo not drawn) [RP 68]		6.05 µM	0.5 µM	0.345 µM			
Cc1cc(-c2ccc3c(c2)C2(COC(N)=N2)C2(COC2)CO3)ccn1 (stereo not drawn) [RP 37]	55.4 µM						
NC1=NC2(CO1)c1cc(-c3cnc4[nH]ccc4c3)ccc1OCC21CC1 (stereo not drawn) [RP 61, 6′-(1H-pyrrolo[2,3-b]pyridin-5-yl)dispiro[cyclopropane-1,3′-chromene-4′,4″-[1,3]oxazol]-2″-amine]		9.22 µM	0.35 µM				
CCCC1Oc2ccc(-c3cncnc3)cc2C2(COC(N)=N2)C12COC2 (stereo not drawn) [RP 91]		> 10 µM	0.34 µM	0.656 µM			
NC1=NC2(CO1)c1cc(-c3cncnc3)ccc1OCC21CC(F)(F)C1 (stereo not drawn) [RP 208]		> 10 µM	6.1 µM	7.76 µM			
NC1=NC2(CO1)c1cc(-c3cncnc3)ccc1OC(C1CC1)C21COC1 (stereo not drawn) [RP 88]		> 10 µM	1.4 µM	2.51 µM			
NC1=NC2(CO1)c1cc(-c3cncnc3)ccc1OC1(CCC1)C21COC1 (stereo not drawn) [RP 5]		> 10 µM	0.59 µM	1.56 µM			
NC1=NC2(CO1)c1cc(-c3cncc(C(F)F)c3)ccc1OC1(CCC1)C21COC1 (stereo not drawn) [RP 118]		> 10 µM	0.99 µM	1.81 µM			
CC1(C)Oc2ccc(Br)cc2C2(CSC(N)=N2)C12COC2 (stereo not drawn) [RP 42]		> 10 µM	5.9 µM	16.1 µM			

Compound	IC50 [1]	IC50 [2]	IC50 [3, 5]	IC50 [4]	IC50 ([3]; read-out: Test Example 3 IC50, Aβ40 production)	Ki [4]	selectivity ratio ([2]; human, CHO-K1 cells stably expressing hERG, pH 7.4)
Cc1cncc(-c2ccc3c(c2)C2(COC(N)=N2)C2(COC2)C2(CCC2)O3)c1 (stereo not drawn) [RP 75, 6′-(5-methylpyridin-3-yl)trispiro[cyclobutane-1,2′-chromene-4′,4″-[1,3]oxazole-3′,3′″-oxetan]-2″-amine]		> 10 µM	1.1 µM	3.67 µM			
CCOc1cncc(-c2ccc3c(c2)C2(COC(N)=N2)C2(CC2)CO3)c1 (stereo not drawn) [RP 106]		5.75 µM	0.16 µM	1.83 µM			
CC1(C)Oc2ccc(NC(=O)c3ccc(F)cn3)cc2[C@@]2(COC(N)=N2)C12CC2 [Example 222]		> 10 µM	0.00062 µM	0.138 µM		0.0915 µM	> 109
NC1=NC2(CO1)c1cc(-c3cccnc3)ccc1OC1(CCC1)C21COC1 (stereo not drawn) [RP 209]		> 10 µM	0.83 µM	2 µM			
CC(C)CC1Oc2ccc(-c3cncnc3)cc2C2(COC(N)=N2)C12COC2 (stereo not drawn) [RP 90]		> 10 µM		0.901 µM			
NC1=NC2(CO1)c1cc(-c3cncnc3)ccc1OC(CC1CC1)C21COC1 (stereo not drawn) [RP 204]		> 10 µM	0.24 µM	0.388 µM			
CC1(C)Oc2ccc(-c3cncnc3)cc2C2(CSC(N)=N2)C12COC2 (stereo not drawn) [RP 54, 2′,2′-dimethyl-6′-(pyrimidin-5-yl)dispiro[oxetane-3,3′-chromene-4′,4″-[1,3]thiazol]-2″-amine hydrochloride]		> 10 µM	0.079 µM	0.406 µM			
NC1=NC2(CO1)c1cc(-c3cncnc3)ccc1OC(CC1CC1)C21COC1 (stereo not drawn) [RP 207]		> 10 µM	0.16 µM	0.46 µM			
NC1=NC2(COC1)c1cc(-c3cncnc3)ccc1OCC21CC1 (stereo not drawn) [RP 215, 6′-(pyrimidin-5-yl)-6″H-dispiro[cyclopropane-1,3′-chromene-4′,3″-[1,4]oxazin]-5″-amine]		> 10 µM	0.24 µM	1.21 µM			
CC1(C)Oc2ccc(Br)cc2C2(COC(N)=N2)C12COC2 (stereo not drawn) [RP 6, 6′-bromo-2′,2′-dimethyldispiro[1,3-oxazole-4,4′-chromene-3′,3″-oxetan]-2-amine]		> 10 µM	3.9 µM	11.7 µM			
CCC1Oc2ccc(-c3cncnc3)cc2C2(COC(N)=N2)C12COC2 (stereo not drawn) [RP 84]		> 10 µM	0.41 µM	0.735 µM			
NC1=NC2(CO1)c1cc(-c3cncnc3)ccc1OC(Cc1ccccc1)C21COC1 (stereo not drawn) [RP 200]		> 10 µM	0.026 µM	0.128 µM		0.0921 µM	
NC1=NC2(CO1)c1cc(-c3cncnc3)ccc1OC1(CCCC1)C21COC1 (stereo not drawn) [RP 85]		> 10 µM	0.077 µM	0.319 µM			
CC1(C)Oc2ccc(-c3ccnc(Cl)c3)cc2C2(COC(N)=N2)C12COC2 (stereo not drawn) [RP 163]	1.06 µM						
COc1cccnc1Nc1ccc2c(c1)C1(COC(N)=N1)C1(COC1)C1(CCC1)O2 (stereo not drawn) [RP 45]		> 10 µM	0.057 µM	1.04 µM			
NC1=NC2(CO1)c1cc(Nc3ncccc3Cl)ccc1OCC21COC1 (stereo not drawn) [RP 43, 6′-(3-chloropyridin-2-yl)aminodispiro[1,3-oxazole-4,4′-chromene-3′,3″-oxetane]-2-amine]		> 10 µM	1.4 µM	1.96 µM			
CC#Cc1cncc(-c2ccc3c(c2)C2(COC(N)=N2)C2(CC2)CO3)c1 (single isomer, unassigned) [RP 52a, 6′-[5-(prop-1-yn-1-yl)pyridin-3-yl]dispiro[cyclopropane-1,3′-chromene-4′,4″-[1,3]oxazol]-2″-amine]		4.83 µM	0.075 µM	0.161 µM			
NC1=NC2(CO1)c1cc(-c3cncc(C(F)(F)F)c3)ccc1OC1(CCC1)C21COC1 (stereo not drawn) [RP 99]		> 10 µM	1.9 µM	2.97 µM			
NC1=NC2(CO1)c1cc(-c3cncnc3)ccc1OCC21CCC1 (stereo not drawn) [RP 101]		5.28 µM		7.65 µM			
N#Cc1cnc(C(=O)Nc2ccc3c(c2)C2(COC(N)=N2)C2(CC2)CO3)c(Cl)c1 (stereo not drawn) [RP 192]		> 10 µM		0.318 µM		0.28 µM	
NC1=NC2(CO1)c1cc(Br)ccc1OC(CC1CC1)C21COC1 (single isomer, unassigned) [RP 16a]		> 10 µM		9.54 µM			
Cc1cnnc(-c2ccc3c(c2)C2(COC(N)=N2)C2(COC2)C2(CCC2)O3)c1 (stereo not drawn) [RP 76]		> 10 µM		13.4 µM			
NC1=NC2(c3cc(-c4cncnc4)ccc3OCC23CC3)c2cccc(F)c21 (stereo not drawn) [RP 199]		4.25 µM	0.24 µM	0.736 µM			
CC(C)Cc1ccc2c(c1)C1(COC(N)=N1)C1(COC1)C1(CCC1)O2 (stereo not drawn) [RP 46, 6′-isobutyltrispiro[cyclobutane-1,2′-chromene-4′,4″-[1,3]oxazole-3′,3′″-oxetan]-2″-amine]		> 10 µM	1.4 µM	8.94 µM			
CCc1cncc(-c2ccc3c(c2)C2(COC(N)=N2)C2(CC2)CO3)c1 (stereo not drawn) [RP 63]		4.48 µM	3.3 µM	7.9 µM			
NC1=NC2(CO1)c1cc(-c3cncnc3)c(F)cc1OCC21CC1 (stereo not drawn) [RP 102]		> 10 µM	0.24 µM	1.61 µM			
